Where two headings read alike, the source gives them in different places.
How the values were obtained:
K. pneumoniae ST258 [1] = assay: Screening of peptidomimetic-antibiotic combinations (growth / growth inhibition); format: cell-based, Klebsiella pneumoniae; set-up: key to Growth in combination with RIF / Growth in combination with AZM: Growth (+); growth inhibition (–)
[2] = MTS/PMS cell viability assay; format: cell-based, mouse; conditions: mouse, NIH 3T3 fibroblasts, 1 h exposure, read-out: Cytotoxicity NIH 3T3 EC50 ± SD
How it was run: (§1)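 NIH 3T3 and HepG2 cells at 80–90% confluence exposed 1 h to compound in serum-free medium, then MTS/PMS added for 1 h at 37 °C; absorbance read at 492 nm. Viability normalized to medium (0% death) and 0.2% SDS (100% death); EC50 from Hill fit constrained 0–100%, technical triplicates.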

[3] = MTS/PMS cell viability assay; format: cell-based; conditions: human, HepG2 hepatocytes, 1 h exposure, read-out: Cytotoxicity HepG2 EC50 ± SD
How it was run: as §1

E. coli ST131 [4] = assay: MIC by broth microdilution; format: cell-based, Escherichia coli; conditions: peptidomimetic alone
How it was run: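 MICs of peptidomimetics, antibiotics and their combinations were measured by CLSI broth microdilution. Combination ratios came from checkerboard results: peptidomimetic to rifampicin 2:1, to azithromycin 1:4. For potentiation, peptidomimetic was added to preformed antibiotic-gradient panels just before inoculation.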

K. pneumoniae ST258 [5] = assay: MIC by broth microdilution; format: cell-based, Klebsiella pneumoniae
How it was run: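 MICs were determined by CLSI broth microdilution. Combinations used fixed peptidomimetic:antibiotic ratios of 2:1 with rifampicin and 1:4 with azithromycin, and potentiation of other antibiotics was tested on COMPAN1F panels. MBCs came from OD600 growth curves over 24 h at 37°C, followed by plating of wells without growth onto MHA.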

[6] = tested on: K. pneumoniae clinical isolates and reference strains; assay: MIC of fixed-ratio peptidomimetic 1-antibiotic combinations in clinical isolates and reference strains; format: cell-based, Klebsiella pneumoniae; conditions: with rifampicin or azithromycin
Description: Bacterial strains used in this study comprise MDR clinical isolates of E. coli ST131 (Cerquetti et al., [2010]) and K. pneumoniae ST258 (Jana et al., [2017]), and American type culture collection (ATCC) strains: ATCC 25922 (E. coli), ATCC 13883 (K. pneumoniae), and ATCC 27853 (P. aeruginosa). Additional clinical isolates of E. coli, K. pneumoniae, and P. aeruginosa resistant to β-lactams (including carbapenems and cephalosporins) were provided by Laurent Poirel, Université de Fribourg, Switzerland. The following growth media was routinely used for bacterial culturing: Luria-Burtani (LB), cation-adjusted Mueller-Hinton agar (MHA) and broth (MHB II). All assays were performed in cation-adjusted MHA or MHB II. […]
Minimal inhibitory concentrations (MICs) of peptidomimetics, antibiotics and their combinations were determined by broth microdilution according to the Clinical Laboratory Standards Institute performance standards (Clinical and Laboratory Standards Institute, [2013]). […] Potentiation of additional antibiotics by peptidomimetics was determined by using commercial 96-well plates containing varied concentrations of standard antibiotics (COMPAN1F; Trek Diagnostic Systems Inc.). The peptidomimetics were added immediately prior to inoculation with pathogen, and then MICs were determined as above. […] Minimal bactericidal concentrations (MBCs) were determined by using growth-curve assay plates. […]

E. coli ST131 [7] = conditions: ST131, 24 h
Method: (§2) Minimal inhibitory concentrations (MICs) of peptidomimetics, antibiotics and their combinations were determined by broth microdilution according to the Clinical Laboratory Standards Institute performance standards (Clinical and Laboratory Standards Institute, [2013]). […] Since rifampicin and azithromycin mainly are used to treat infections with Gram-positive pathogens only CLSI clinical breakpoints were available for such bacteria. […] Potentiation of additional antibiotics by peptidomimetics was determined by using commercial 96-well plates containing varied concentrations of standard antibiotics (COMPAN1F; Trek Diagnostic Systems Inc.). The peptidomimetics were added immediately prior to inoculation with pathogen, and then MICs were determined as above. The MICs of peptidomimetic/antibiotic combinations were determined according to the method above, and the concentration ratios were selected based upon checkerboard results with 2:1 and 1:4 ratio of peptidomimetic with rifampicin or azithromycin, respectively. Minimal bactericidal concentrations (MBCs) were determined by using growth-curve assay plates. MIC plates were prepared as above, and then the plates were incubated at 37°C with continuous shaking. Growth was recorded at 10 min intervals as optical density (OD) at 600 nm during 24 h. At 24 h, for wells without growth, a sample was diluted 10-fold in sterile saline (0.9% sodium chloride) and plated onto MHA, following CLSI guidelines (Clinical and Laboratory Standards Institute, [1999]).

K. pneumoniae ST258 [8] = conditions: ST258, 24 h
Method: as §2

P. aeruginosa ATTC 27853 = conditions: ATTC 27853, 24 h
Method: as §2

## NCCCC[C@H](NC(=O)CCN(Cc1ccccc1)C(=O)[C@H](CCCCN)NC(=O)CCN(Cc1ccccc1)C(=O)[C@H](CCCCN)NC(=O)CCN(Cc1ccccc1)C(=O)[C@H](CCCCN)NC(=O)CCN(Cc1ccccc1)C(=O)[C@H](CCCCN)NC(=O)CCN(Cc1ccccc1)C(=O)[C@H](CCCCN)NC(=O)CCN(Cc1ccccc1)C(=O)[C@H](CCCCN)NC(=O)CCN(Cc1ccccc1)C(=O)[C@@H](N)CCCCN)C(=O)N(CCC(N)=O)Cc1ccccc1 [Peptidomimetic 1, H-(Lys-βNPhe)8-NH2]
K. pneumoniae ST258 [1]; 0.5 μM peptidomimetic + 0.5 μg/mL rifampicin
  Screening result with rifampicin: inhibit growth
K. pneumoniae ST258 [1]; 0.5 μM peptidomimetic + 1 μg/mL azithromycin
  Screening result with azithromycin: prevented growth
K. pneumoniae ST258 [1]; peptidomimetic 0.5 μM + azithromycin 1 μg/mL
  Growth in combination with AZM: –
K. pneumoniae ST258 [1]; peptidomimetic 0.5 μM + rifampicin 0.5 μg/mL
  Growth in combination with RIF: –
[2]
  EC50 at 1 h: 211 ± 26.8 µM
[3]
  EC50 at 1 h: 124 ± 0.81 µM
E. coli ST131 [4]
  MIC E. coli ST131: 2 µM
K. pneumoniae ST258 [5]; average of EC50 (HepG2, NIH 3T3) divided by MIC
  Selectivity Index (SI) K. pneumoniae ST258: (10)
K. pneumoniae ST258 [5]; peptidomimetic alone
  MIC K. pneumoniae ST258: 16 µM
[6]
  Peptidomimetic concentration required to induce susceptibility, three K. pneumoniae isolates: 2 to 8 µM
E. coli ST131 [7]
  MBC (peptidomimetic alone): 1 µM
  MIC (peptidomimetic alone): 1 µM
K. pneumoniae ST258 [8]
  MBC (peptidomimetic alone): 16 to 32 µM
  MIC (peptidomimetic alone): 8 µM
P. aeruginosa ATTC 27853
  MBC (peptidomimetic alone): 2 µM
  MIC (peptidomimetic alone): 1 µM

Source: article PMC6615261, “Repurposing Azithromycin and Rifampicin Against Gram-Negative Pathogens by Combination With Peptidomimetics” (Frontiers in Cellular and Infection Microbiology, 2019)
